Measured values: patent US20250326725A1, “PI4-Kinase Inhibitors and Methods of Using the Same” (The Board of Trustees of the Leland Stanford Junior …, priority 2019, published 2025)
“And” between values parts separate entries of the source, which are not always exact repeats. Equal values may be shown once. Read-outs that look alike come from different tables or passages of the source.

Columns and labels:
PI4KIIIalpha = biological target: T1, PI4KIIIalpha (Homo sapiens, UniProt P42356); assay: PI-kinase assay, PI4KIIIalpha (Table 4); format: biochemical
T1 construct: made in house; host or cells: COS-7 cells, transient transfection, anti-HA immunoprecipitate on protein G Sepharose beads
Description: (§1) PI-kinase assay: Compounds are tested in C.1.1. PT kinase assays as described by Shokat et al., “A membrane capture assay for lipid kinase activity.” Nat. Protoc. 2007; 2(10):2459-66.
(§2) General methods of materials: In the assays described here, p110α-p85 complex and p110γ were acquired from Millipore. Assays were performed with La-phosphatidylinositol (Avanti) as described in Knight et al. Nat Protoc. 2007; 2 (10):2459-66. Inhibitor series were prepared 10% DMSO as 5× stocks for the assay. Assays of HsVps34 were performed as described in Knight et al, except that the final assay buffer composition used was changed to 20 mM HEPES 7.5, 100 mM NaCl, 3 mM MgCl, 1 mg/mL PI and 44 nM hvps34 was used in the assay. […] COS-7 cells were cultured in 10 cm dishes and transfected at 70% confluence with 10 μg of plasmid DNA (HA-tagged bovine PI4KIIIβ. HA-tagged human PI4KIIIα) using Lipofectamine 2000 and 5 ml Opti-MEM following the manufacturer's instructions. After 5 hours the transfection medium was replaced with 10 ml complete DMEM. 36 hrs post transfection, cells were washed once with 5 ml PBS (pH 7.4) and lysed in 1 ml of lysis buffer (1) on ice. Lysates were collected by scraping and after 15 min they were centrifuged at 13.000 rpm for 10 min. To the lysates was added 200 gi of protein G Sepharose 4 fast flow beads that were prewashed with PBS and lysis buffer and 2 sg of anti-HA antibody. The tubes were then incubated overnight at 4 degrees C. in a tube rotator. The Sepharose beads in the lysate were washed twice with 150 mM NaCl in RIPA buffer, twice with RIPA buffer and once with kinase buffer (50 mM Tris/HCl, pH 7.5, 20 mM MgCl2, 1 mM EFTA, 1 mM PtdIns, 0.4% Triton X-100, 0.5 mg/mL BSA) and finally the beads were resuspended in 200 μL kinase buffer. Kinase reactions were run in a mixture of 45 μL of PI buffer (1 mM P1 in kinase buffer), 10 μL of immunoprecipitated beads, 2 µL of inhibitors (dissolved and diluted in DMSO) or DMSO and 5 μL of [γ-^32P]-ATP (1 mM and 2 μCi/tube). The immunoprecipitates in PI buffer were pre-incubated with the drugs for 20 min prior the initiation of kinase reaction by adding ATP and the reactions were carried out for 30 min in 15 ml polyproplyene tubes. Reactions were terminated by addition of 3 ml of CHCl3:CH3OH:HCl (200:100:0.75) followed by 0.6 ml of 0.61N HCl to induce phase separation. The mixtures were vortexed, centrifuged at 2000 rpm for 2 min and the upper phase was discarded. To the lower phase was added 1.5 ml of CHCl3:CH3OH:0.6N HCl (3:48:47) and the mixture vortexed and centrifuged at 2000 rpm for 2 ruin. The lower phase was then transferred to counting vials and evaporated. Samples were counted in a scintillation beta counter after adding 5 ml of Instafluor (Perkin-Elmer).
(§3) Selected compounds of Tables 1-3 were prepared and tested for inhibition activity in a variety of kinase assays.

PI4KIIIbeta = biological target: T2, PI4KIIIbeta (Bos taurus, UniProt O02810); assay: PI-kinase assay, PI4KIIIbeta (Table 4); format: biochemical, bovine
T2 construct: made in house; host or cells: COS-7 cells, transient transfection, anti-HA immunoprecipitate on protein G Sepharose beads
Description: as §1, §2, §3

[1] = Cell toxicity (CC50) in JC virus assay
EV71 = EV71 antiviral assay (EC50); format: cell-based, Enterovirus 71
[2] = Cell toxicity (CC50) in EV68 assay; conditions: EV68 CC50
[3] = Caco-2 permeability assay; format: in vitro ADME; conditions: human, read-out: Caco2 Papp × 1e−6 cm/s
Description: Compounds of interest were tested in a variety of cell-based assays for antiviral activity.

[4] = Microsomal stability, mouse liver microsomes; format: in vitro ADME
HRV = assay: Rhinovirus antiviral assay (EC50); format: cell-based; conditions: Human rhinovirus sp.
[5] = Cell toxicity (CC50) in HRV assay; conditions: human, HRV CC50
[6] = Microsomal stability, human liver microsomes; format: in vitro ADME; conditions: for half-life: read-out: HLM/MLM (t ½ min): HLM
[7] = system: JC virus (Polyomaviridae); assay: JC virus antiviral assay (EC50); format: cell-based; conditions: JC polyomavirus
cells (EV71 assay) = assay: Cell toxicity (CC50) in EV71 assay
[8] = Cell toxicity (CC50) in EV71 assay; conditions: EV71 CC50
EV68 = EV68 antiviral assay (EC50); format: cell-based
HCV = assay: Anti-HCV assay (EC50); format: cell-based; conditions: Hepatitis C virus, read-out: HCV EC50
Description: Anti-HCV assay: Anti-HCV assays are performed as described by Cho et al. “Identification of a class of HCV inhibitors directed against the nonstructural protein NS4B.” Sci. Transl. Med. 2011; 2(15):15ra6.

cells (EV68 assay) = assay: Cell toxicity (CC50) in EV68 assay
HeLa S3 cells = assay: Cell toxicity (CC50) in HRV assay; conditions: human
lung cancer cell lines [9] = assay: Cell proliferation in monolayer culture (WST-1); format: cell-based, human; conditions: panel of lung cancer cell lines
Description: (§4) Human lung cancer cells (A549, H1299, H460, H23, H2122, and H3122) were cultured in RPMI 1640 containing 10% FBS. Cells were maintained at 37° C. in an incubator with a humidified atmosphere containing 5% CO2.
(§5) To assess the anti-cancer activity of exemplary PI4K antagonists, a panel of lung cancer cell lines annotated for the presence or absence of PI4K amplifications were treated with PI4K inhibitors (IN-9, TN-10, or compound B) that have greater than 1000-fold selectivity […] PI4KIIIβ over class I and class III PI3K family members. […] IC50 values were even lower with the presence of PI4K amplifications.
(§6) PI4KIIIβ is a target in human cancers, including lung adenocarcinoma. (FIG. 1A). PI4P concentrations in H2122 cells (dots) treated in triplicate (dots) with Compound B or vehicle dimethyl sulfoxide (DMS). (FIG. 1B) Relative densities of PI4-kinase-amplified (red) and -diploid (black) human lung adenocarcinoma cell lines determined by WST-1 assays after 5 days of Compound B treatment. Results expressed relative to the lowest dose, which was set at 100%. (FIG. 1B, right panel) Half maximal inhibitory (IC50) concentrations of compound B determined from FIG. 1B, left panel. (FIG. 1C) Migrated and invaded 1-23 human lung adenocarcinoma cells in Transwell chambers were photographed (images) and counted (bar graphs) after treatment with compound B. Results expressed relative to DMSO-treated cells, which were set at 1.0. (FIG. 1C, right panel). Colonies formed by H2122 human lung cancer cells in soft agarose (FIG. 1D) and on plastic (FIG. 1E) were photographed (images) and counted (bar graphs) after 7 days of treatment with the indicated doses of compound B or vehicle DMSO (0 M). Results expressed relative to DMSO control, which were set at 1.0. PI4-kinase inhibition leads to selective cytotoxicity for cancer cells (FIG. 1F).

lung cancer cell lines [10] = assay: Colony formation in soft agar and on plastic; format: cell-based, human; conditions: panel of lung cancer cell lines
Description: as §4, §5, §6

lung cancer cell lines [11] = assay: PI4P levels in lung cancer cell lines; format: cell-based, human; conditions: panel of lung cancer cell lines
Description: as §4, §5, §6

lung cancer cell lines [12] = assay: Migration and invasion in Boyden chambers; format: cell-based, human; conditions: panel of lung cancer cell lines
Description: as §4, §5, §6

[13] = system: BK virus (Polyomaviridae); assay: BK virus antiviral assay (EC50); format: cell-based; conditions: Betapolyomavirus hominis
[14] = Cell toxicity (CC50) in BK virus assay
[15] = read-out: HLM/MLM (t ½ min): MLM
[16] = with ritonavir (concentration not stated), + Ritonavir, read-out: HLM/MLM (t ½ min) + Ritonavir: MLM

T1 sequence (P42356 whole entry): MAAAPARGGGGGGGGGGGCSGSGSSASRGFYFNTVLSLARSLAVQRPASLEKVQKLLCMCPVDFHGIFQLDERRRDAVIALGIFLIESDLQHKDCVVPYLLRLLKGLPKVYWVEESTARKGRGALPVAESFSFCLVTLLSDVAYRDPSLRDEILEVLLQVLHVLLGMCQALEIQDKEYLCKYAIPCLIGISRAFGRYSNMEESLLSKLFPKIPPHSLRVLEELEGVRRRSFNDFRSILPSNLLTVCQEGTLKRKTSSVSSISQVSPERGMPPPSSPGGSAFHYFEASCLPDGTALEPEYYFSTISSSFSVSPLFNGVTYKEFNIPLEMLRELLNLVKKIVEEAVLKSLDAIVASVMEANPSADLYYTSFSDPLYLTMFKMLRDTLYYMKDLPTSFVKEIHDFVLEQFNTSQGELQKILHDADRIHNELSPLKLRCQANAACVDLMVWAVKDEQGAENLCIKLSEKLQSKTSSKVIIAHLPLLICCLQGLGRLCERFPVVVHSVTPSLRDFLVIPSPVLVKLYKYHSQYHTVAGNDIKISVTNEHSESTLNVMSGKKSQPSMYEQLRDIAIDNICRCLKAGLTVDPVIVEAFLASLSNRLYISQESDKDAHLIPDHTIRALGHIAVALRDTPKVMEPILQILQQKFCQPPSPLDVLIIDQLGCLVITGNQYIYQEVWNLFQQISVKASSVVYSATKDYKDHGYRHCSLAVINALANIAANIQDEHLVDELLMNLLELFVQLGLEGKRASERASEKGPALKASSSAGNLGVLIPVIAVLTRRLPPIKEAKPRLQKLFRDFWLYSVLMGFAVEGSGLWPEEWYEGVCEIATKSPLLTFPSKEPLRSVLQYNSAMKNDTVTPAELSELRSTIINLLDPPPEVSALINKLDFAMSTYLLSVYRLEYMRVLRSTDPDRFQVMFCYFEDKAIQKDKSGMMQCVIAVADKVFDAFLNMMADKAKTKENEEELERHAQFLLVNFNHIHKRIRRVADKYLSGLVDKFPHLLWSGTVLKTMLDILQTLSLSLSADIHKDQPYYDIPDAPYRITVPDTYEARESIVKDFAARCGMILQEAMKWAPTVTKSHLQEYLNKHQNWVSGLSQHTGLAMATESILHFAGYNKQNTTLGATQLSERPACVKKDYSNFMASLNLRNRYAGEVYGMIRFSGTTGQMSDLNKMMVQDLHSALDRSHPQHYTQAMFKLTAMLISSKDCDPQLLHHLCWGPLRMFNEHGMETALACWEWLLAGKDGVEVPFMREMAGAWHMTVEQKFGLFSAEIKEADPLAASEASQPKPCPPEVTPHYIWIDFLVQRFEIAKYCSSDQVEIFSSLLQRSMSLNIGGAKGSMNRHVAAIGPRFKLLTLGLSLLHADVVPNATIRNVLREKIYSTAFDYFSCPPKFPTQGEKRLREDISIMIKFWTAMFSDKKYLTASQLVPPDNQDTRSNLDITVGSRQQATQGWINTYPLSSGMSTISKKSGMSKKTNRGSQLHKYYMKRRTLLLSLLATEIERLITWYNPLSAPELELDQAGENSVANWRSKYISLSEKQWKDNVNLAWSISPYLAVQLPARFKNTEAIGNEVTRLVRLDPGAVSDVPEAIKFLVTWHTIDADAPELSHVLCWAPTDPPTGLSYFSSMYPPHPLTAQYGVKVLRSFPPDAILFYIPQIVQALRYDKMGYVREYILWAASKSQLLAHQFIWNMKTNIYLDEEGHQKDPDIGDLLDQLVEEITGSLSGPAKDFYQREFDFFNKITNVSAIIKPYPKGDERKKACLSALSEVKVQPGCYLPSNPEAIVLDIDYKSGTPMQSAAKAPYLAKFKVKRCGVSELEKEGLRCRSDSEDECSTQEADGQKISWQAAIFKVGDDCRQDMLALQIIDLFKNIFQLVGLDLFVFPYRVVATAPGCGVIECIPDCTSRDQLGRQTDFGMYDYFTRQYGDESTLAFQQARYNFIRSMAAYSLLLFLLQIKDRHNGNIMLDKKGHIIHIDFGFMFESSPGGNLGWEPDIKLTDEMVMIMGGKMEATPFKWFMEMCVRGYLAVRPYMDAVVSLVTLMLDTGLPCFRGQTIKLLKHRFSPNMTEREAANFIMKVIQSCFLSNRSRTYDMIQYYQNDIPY
T2 sequence (O02810 whole entry): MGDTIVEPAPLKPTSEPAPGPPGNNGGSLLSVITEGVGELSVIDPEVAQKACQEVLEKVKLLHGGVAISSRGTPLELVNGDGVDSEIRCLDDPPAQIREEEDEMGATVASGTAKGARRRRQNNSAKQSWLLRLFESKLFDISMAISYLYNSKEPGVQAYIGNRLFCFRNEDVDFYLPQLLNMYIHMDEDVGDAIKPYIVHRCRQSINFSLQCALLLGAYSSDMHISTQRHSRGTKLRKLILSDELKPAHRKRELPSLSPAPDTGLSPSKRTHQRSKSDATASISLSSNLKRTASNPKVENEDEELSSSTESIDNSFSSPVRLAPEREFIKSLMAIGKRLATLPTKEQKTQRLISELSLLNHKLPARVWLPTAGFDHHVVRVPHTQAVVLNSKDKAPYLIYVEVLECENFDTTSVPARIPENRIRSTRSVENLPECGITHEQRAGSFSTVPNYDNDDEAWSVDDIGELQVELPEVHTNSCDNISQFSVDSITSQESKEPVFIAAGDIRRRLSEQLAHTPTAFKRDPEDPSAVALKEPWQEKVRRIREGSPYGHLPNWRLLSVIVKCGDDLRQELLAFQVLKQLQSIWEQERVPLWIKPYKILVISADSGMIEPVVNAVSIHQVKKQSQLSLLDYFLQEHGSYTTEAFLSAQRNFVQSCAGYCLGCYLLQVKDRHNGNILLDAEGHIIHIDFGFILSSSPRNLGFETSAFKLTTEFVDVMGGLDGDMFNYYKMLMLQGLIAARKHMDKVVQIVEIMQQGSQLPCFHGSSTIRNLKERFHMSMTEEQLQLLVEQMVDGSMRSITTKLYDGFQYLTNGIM

Structure (SMILES) | IC50 (PI4KIIIalpha) [µM] | IC50 (PI4KIIIbeta) [µM] | EC50 (EV71; Enterovirus A, EV71) [µM] | CC50 [2] [µM] | Papp [3] [×10⁻⁶ cm/s] | half-life [4, 15] [h] | half-life [4, 16] [h] | EC50 (HRV) [µM] | CC50 [5] [µM] | HLM/MLM (t ½ min) + Ritonavir: HLM [6] | half-life [6] [h] | CC50 (cells (EV71 assay)) [µM] | CC50 [8] [µM] | EC50 (EV68) | EC50 (HCV) [µM] | CC50 (cells (EV68 assay)) [µM] | CC50 (HeLa S3 cells) [µM] | other results
COc1ccc(-c2sc(NC(C)(C)c3ccccc3)nc2C)cc1S(=O)(=O)NC1CCN(C(C)=O)CC1 [Compound S-42] | > 10 | < 0.1 | 0.0003 | 100 | 14 | 0.233 | 1.37 | 0.0009 | 100 | 159 min | 0.167 | 100 | 103 | 0.0019 µM and 0.0016 µM | 0.0007 | – | – | CC50 [1]: > 150 µM; EC50 [7]: 8.1 µM
COc1ccc(-c2sc(NC(C)(C)c3cccnc3)nc2C)cc1S(=O)(=O)Nc1c(C)cccc1F [Compound S-39] | – | – | 0.0002 | 19.9 | 7.6 | 1.12 | 1.38 | 0.0002 | 47.7 | 159 min | 1.38 | 99 | 99 | 0.0008 µM | 0.0002 | 19 | 47 | –
COc1ccc(-c2sc(NC3(C4CCOCC4)CC3)nc2C)cc1S(=O)(=O)Nc1ccc(Cl)cc1Cl [Compound S-14] | – | – | 0.0104 | 39.4 | – | – | – | 0.014 | 36.4 | – | – | 37 | 37.2 | 33.3 µM and 33 µM | 0.0144 | 39 | 36 | EC50 (EV71): 0.01 µM
COc1ccc(-c2sc(NC(C)(C)C3CCOCC3)nc2C)cc1S(=O)(=O)Nc1cccnc1C [Compound S-3] | – | – | 0.0005 | 47.5 | 7.42 | 0.967 | 2.65 | 0.0005 | 70.5 | 159/159 min | 0.967 | 86 | 86.6 | 0.0013 µM and 0.001 µM | 0.0005 | 47 | 70 | –
COc1ccc(-c2sc(NC(=O)C3CCCC3)nc2C)cc1S(=O)(=O)Nc1ccc(O)cc1 [PI4KIIIbeta-IN-9] | – | – | – | – | – | – | – | – | – | – | – | – | – | – | – | – | – | cell proliferation in monolayer culture (lung cancer cell lines [9]): reduced cell proliferation in monolayer culture; colony formation in soft agar and on plastic (lung cancer cell lines [10]): reduced; PI4P levels (lung cancer cell lines [11]): decreased PI4P levels in a dose-dependent fashion; migration and invasion in Boyden chambers (lung cancer cell lines [12]): reduced
COc1ccc(-c2sc(NC(C)(C)c3ccccc3)nc2C)cc1S(=O)(=O)Nc1c(C)cccc1F [Compound S-32] | > 10 | < 0.1 | – | 100 | 0.04 | 0.367 | 2.22 | – | – | 159 min | 0.283 | – | – | 0.0006 µM and 0.0003 µM | 0.0002 | – | – | –
COc1ccc(-c2sc(NC(C)C3CCOCC3)nc2C)cc1S(=O)(=O)Nc1c(C)cccc1F (stereo not drawn) [Compound S-76] | – | – | 0.0018 | 9.4 | – | – | – | 0.0019 | 9.3 | – | – | – | 36 | 0.005 µM | – | – | – | EC50 [13]: < 0.0006 µM; CC50 [14]: 27 µM
COc1ccc(-c2sc(NC(C)(C)C3CCOCC3)nc2C)cc1S(=O)(=O)Nc1c(C)cccc1F [Compound C] | > 10 | < 0.1 | – | – | – | – | – | – | – | – | – | – | – | – | – | – | – | EC50 [13]: 0.07 µM; CC50 [14]: > 100 µM
